Results from publication PMC5428354, “Screening of a natural compound library identifies emodin, a natural compound from Rheum palmatum Linn that inhibits DPP4” (PeerJ, 2017).
“And” between values parts separate entries of the source, which are not always exact repeats. Identical values can stand only once. Counter-ions that a name gives are not always drawn. Like-named read-outs stand apart in the source and are kept apart here.

Tests used:
Type in all cases: biochemical
DPP4 = DPP4 (Homo sapiens, UniProt P27487); test: DPP4 activity assay (DPP4 inhibitor screening assay kit, Cayman); parameters: purchased Cayman Chemical, Ann Arbor, MI, USA; conditions: for Ki: DPP4; for Ki / IC50: means ± SE; for IC50: in vitro, read-out: IC50 of DPP4 Inhibition; for remaining activity at 10 µM: 0.5 h;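 for all read-outs here: fluorescence read at excitation 360 nm and emission 460 nm after the enzyme reaction ran 30 min at 37 °C in a 96-well plate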
DPP9 = molecular target: T1, DPP9 (Homo sapiens, UniProt Q86TI2); test: DPP9 activity assay (BPS Bioscience kit); conditions: 100 µM, Well #1-#3; for DPP9 activity: DMSO = Ctrl;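 for DPP9 assay, Emission (450 nm): 20 ng DPP9 per 100 µl reaction with DPP substrate 1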
T1 construct: purchased BPS Bioscience 800209

DPP8 = DPP8 (Homo sapiens, UniProt Q6V1X1); test: DPP8 activity assay (BPS Bioscience kit); conditions: for DPP8 assay, Emission (450 nm) / DPP8 activity: 100 µM, Exp #1-#5; for DPP8 activity: DMSO = Ctrl;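 for DPP8 assay, Emission (450 nm): fluorescence read with excitation at 365 nm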
Protocol: A DPP8 assay kit was purchased from BPS Bioscience (Cat# 800208), and the assay protocol was followed to test for inhibitory activity on DPP8. Briefly, DPP substrate 1 was diluted to make a 100 µM stock solution, and DPP8 protein was diluted in DPP assay buffer to 2 ng/µl (20 ng/reaction). For the tested compounds, 10 µl of diluted DPP8 protein, 5 µl of diluted DPP substrate 1, 84 µl of DPP assay buffer and 1 µl of inhibitor were addedinto the assay system for a total volume of 100 µl. The reaction mixtures were prepared in duplicate on a 96-well plate and incubated at room temperature for 10 min. […]

[1] = 10 µM, control mean 100.0, Figure 1A raw data, read-out: DPP4 activity in library screen, Exp 1
[2] = 10 µM, control mean 100.0, Figure 1A raw data, read-out: DPP4 activity in library screen, Exp 2
[3] = 10 µM, control mean 100.0, Figure 1A raw data, read-out: DPP4 activity in library screen, Exp 3
[4] = 10 µM, control mean 100.0, mean of Exp 1-3, read-out: DPP4 activity in library screen, Mean
[5] = 10 µM, control mean 100.0, Figure 1A raw data
[6] = 10 µM, control mean 100.0, mean of Exp 1-3
[7] = read-out: DPP4 activity in library screen, Exp 1, 10 µM, control mean 100.0, Figure 1A raw data
[8] = read-out: DPP4 activity in library screen, Exp 2, 10 µM, control mean 100.0, Figure 1A raw data
[9] = read-out: DPP4 activity in library screen, Exp 3, 10 µM, control mean 100.0, Figure 1A raw data
[10] = read-out: DPP4 activity in library screen, Mean, 10 µM, control mean 100.0, mean of Exp 1-3

DPP8, sequence (Q6V1X1 whole entry): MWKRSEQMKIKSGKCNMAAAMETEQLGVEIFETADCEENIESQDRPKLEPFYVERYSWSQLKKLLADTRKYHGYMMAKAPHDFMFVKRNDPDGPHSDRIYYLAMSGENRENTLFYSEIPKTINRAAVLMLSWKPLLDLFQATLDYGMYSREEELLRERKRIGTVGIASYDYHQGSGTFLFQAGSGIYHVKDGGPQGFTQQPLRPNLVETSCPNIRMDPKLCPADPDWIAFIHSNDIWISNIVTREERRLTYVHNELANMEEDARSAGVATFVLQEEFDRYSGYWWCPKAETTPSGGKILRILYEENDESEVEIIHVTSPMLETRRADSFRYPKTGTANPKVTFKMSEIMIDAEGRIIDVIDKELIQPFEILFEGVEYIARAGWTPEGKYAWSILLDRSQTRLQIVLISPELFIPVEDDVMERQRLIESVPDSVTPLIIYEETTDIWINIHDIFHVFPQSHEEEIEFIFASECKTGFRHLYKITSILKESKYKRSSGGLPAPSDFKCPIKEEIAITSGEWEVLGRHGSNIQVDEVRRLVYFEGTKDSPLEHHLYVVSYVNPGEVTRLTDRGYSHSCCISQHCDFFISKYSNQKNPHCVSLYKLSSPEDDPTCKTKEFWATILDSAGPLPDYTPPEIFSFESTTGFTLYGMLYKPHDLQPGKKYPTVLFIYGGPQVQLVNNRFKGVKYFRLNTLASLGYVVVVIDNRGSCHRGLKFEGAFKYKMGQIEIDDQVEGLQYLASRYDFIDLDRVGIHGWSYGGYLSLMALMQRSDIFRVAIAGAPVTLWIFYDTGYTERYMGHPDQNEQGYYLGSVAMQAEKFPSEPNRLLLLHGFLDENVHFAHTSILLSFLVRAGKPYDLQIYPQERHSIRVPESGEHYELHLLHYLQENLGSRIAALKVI
T1 sequence (Q86TI2 whole entry): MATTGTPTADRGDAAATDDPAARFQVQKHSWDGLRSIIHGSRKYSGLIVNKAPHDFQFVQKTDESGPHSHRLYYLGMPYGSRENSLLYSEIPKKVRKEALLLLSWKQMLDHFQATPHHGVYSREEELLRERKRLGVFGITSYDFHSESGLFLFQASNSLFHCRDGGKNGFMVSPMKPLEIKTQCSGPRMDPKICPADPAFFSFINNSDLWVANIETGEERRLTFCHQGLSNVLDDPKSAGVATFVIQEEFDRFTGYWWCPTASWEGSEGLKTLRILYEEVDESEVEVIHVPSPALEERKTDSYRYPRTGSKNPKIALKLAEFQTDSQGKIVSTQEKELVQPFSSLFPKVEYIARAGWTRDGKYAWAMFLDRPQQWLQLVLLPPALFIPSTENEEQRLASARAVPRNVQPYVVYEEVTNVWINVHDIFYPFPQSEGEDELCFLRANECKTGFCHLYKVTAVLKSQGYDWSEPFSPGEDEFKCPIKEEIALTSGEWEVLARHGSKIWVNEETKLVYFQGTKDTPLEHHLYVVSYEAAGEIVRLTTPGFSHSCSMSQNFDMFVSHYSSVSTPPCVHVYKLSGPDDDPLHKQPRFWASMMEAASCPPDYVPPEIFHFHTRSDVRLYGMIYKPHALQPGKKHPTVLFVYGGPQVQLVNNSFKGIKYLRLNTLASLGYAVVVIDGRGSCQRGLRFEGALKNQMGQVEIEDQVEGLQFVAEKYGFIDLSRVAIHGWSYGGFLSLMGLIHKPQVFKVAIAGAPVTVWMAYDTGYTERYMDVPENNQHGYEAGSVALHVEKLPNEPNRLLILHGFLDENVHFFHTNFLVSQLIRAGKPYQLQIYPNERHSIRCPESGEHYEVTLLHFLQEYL
DPP4, sequence (P27487 whole entry): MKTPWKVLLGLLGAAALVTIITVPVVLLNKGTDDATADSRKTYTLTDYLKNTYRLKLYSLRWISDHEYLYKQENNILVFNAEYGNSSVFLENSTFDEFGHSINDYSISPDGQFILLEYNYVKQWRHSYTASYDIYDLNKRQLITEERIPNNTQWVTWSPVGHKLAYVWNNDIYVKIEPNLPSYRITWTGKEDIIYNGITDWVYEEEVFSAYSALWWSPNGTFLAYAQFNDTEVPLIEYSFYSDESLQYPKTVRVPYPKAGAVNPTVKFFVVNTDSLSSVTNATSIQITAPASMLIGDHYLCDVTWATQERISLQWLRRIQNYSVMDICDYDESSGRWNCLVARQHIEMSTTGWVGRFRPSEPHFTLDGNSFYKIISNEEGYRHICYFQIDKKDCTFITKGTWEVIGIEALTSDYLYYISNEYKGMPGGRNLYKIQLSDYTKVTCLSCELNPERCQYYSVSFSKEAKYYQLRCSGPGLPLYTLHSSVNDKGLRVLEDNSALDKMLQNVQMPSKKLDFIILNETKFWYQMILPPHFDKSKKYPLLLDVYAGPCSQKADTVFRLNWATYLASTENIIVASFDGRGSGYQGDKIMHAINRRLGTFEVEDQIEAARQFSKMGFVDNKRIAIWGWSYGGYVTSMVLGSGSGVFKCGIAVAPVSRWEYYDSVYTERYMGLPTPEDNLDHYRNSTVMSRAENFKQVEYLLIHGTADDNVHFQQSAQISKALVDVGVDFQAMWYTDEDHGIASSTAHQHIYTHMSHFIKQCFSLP

Compound | remaining activity at 10 µM (DPP4; [1]) [%] | remaining activity at 10 µM (DPP4; [2]) [%] | remaining activity at 10 µM (DPP4; [3]) [%] | remaining activity at 10 µM (DPP4; [4]) [%] | further results
O=C1c2cccc(O)c2C(=O)c2c(O)cc(CO)cc21 [Aloe-emodin] |  |  |  |  | Ki (DPP4): 2.37 ± 0.62 µM; IC50 (DPP4): 16 ± 4.24 µM; DPP9 assay, Emission (450 nm) (DPP9): 45255 and 48696 and 44751; DPP9 activity (DPP9): 92.9 % of Ctrl and 100.0 % of Ctrl and 91.9 % of Ctrl; DPP8 assay, Emission (450 nm) (DPP8): 28333 and 31255 and 28705 and 40933 and 31387; DPP8 activity (DPP8): 59.6 % of Ctrl and 101.9 % of Ctrl and 112.4 % of Ctrl and 103.3 % of Ctrl and 77.7 % of Ctrl
Cc1cc(O)c2c(c1)C(=O)c1cccc(O)c1C2=O [Chrysophanol] | 64.4 | 60 | 75 | 66.5 | IC50 (DPP4): > 100 µM; DPP9 assay, Emission (450 nm) (DPP9): 43157 and 48875 and 45154; DPP9 activity (DPP9): 88.6 % of Ctrl and 100.3 % of Ctrl and 92.7 % of Ctrl; DPP8 assay, Emission (450 nm) (DPP8): 27057 and 31330 and 23865 and 45793 and 40995; DPP8 activity (DPP8): 77.8 % of Ctrl and 97.3 % of Ctrl and 112.7 % of Ctrl and 85.8 % of Ctrl and 86.9 % of Ctrl
O=C(O)c1cc(O)c2c(c1)C(=O)c1cccc(O)c1C2=O [Rhein] |  |  |  |  | Ki (DPP4): 3.42 ± 0.53 µM; IC50 (DPP4): 23.1 ± 3.57 µM; DPP9 assay, Emission (450 nm) (DPP9): 41706 and 44766 and 43536; DPP9 activity (DPP9): 85.6 % of Ctrl and 91.9 % of Ctrl and 89.4 % of Ctrl; IC50 (DPP8): > 100 µM; DPP8 activity (DPP8): 54.9 % of Ctrl and 47.9 % of Ctrl and 41.4 % of Ctrl and 44.7 % of Ctrl and 72.6 % of Ctrl; activity against DPP8 (DPP8; tested at 100 µM): very weak activity
O=C(O)C1=C[C@@H](O)[C@@H](O)[C@H](O)C1 [Shikimic Acid] | 87.3 | 80.7 | 84.9 | 84.3 | 
COc1cc(C2Oc3cc([C@H]4Oc5cc(O)cc(O)c5C(=O)[C@@H]4O)ccc3OC2CO)ccc1O (stereo partly drawn) [Silibinin] | 65.1 | 76.8 | 67.3 | 69.7 | 
COC1=C[C@@H]2[C@@H]3Cc4ccc(OC)c(O)c4[C@]2(CCN3C)CC1=O [Sinomenine] |  |  |  |  | remaining activity at 10 µM (DPP4; read-out: DPP4 activity in library screen, Exp 1): 103%; remaining activity at 10 µM (DPP4; read-out: DPP4 activity in library screen, Exp 2): 93.4%; remaining activity at 10 µM (DPP4; read-out: DPP4 activity in library screen, Mean): 104%
O=C([O-])C(O)Cc1ccc(O)c(O)c1.[Na+] (stereo not drawn) [Sodium Danshensu] |  |  |  |  | DPP4 activity in library screen, Exp 1 (DPP4; [5]): 95.8; DPP4 activity in library screen, Exp 2 (DPP4; [5]): 90.3; DPP4 activity in library screen, Exp 3 (DPP4; [5]): 90.2; DPP4 activity in library screen, Mean (DPP4; [6]): 92.1
O=C1C=CC[C@@H]2[C@H]3CCCN4CCC[C@@H](CN12)[C@@H]34 [Sophocarpine] | 96.7 | 109 | 111 | 105 | 
OC[C@@H](O)[C@@H](O)[C@H](O)[C@@H](O)CO [Sorbitol] | 94.5 | 91.5 | 90.4 | 92.1 | 
CNCC(O)c1ccc(O)cc1 (stereo not drawn) [Synephrine] | 98.7 | 76.9 | 87.7 | 87.8 | 
COc1ccc(-c2cc(=O)c3c(OC)c(OC)c(OC)c(OC)c3o2)cc1 [Tangeretin] | 75.6 | 80.1 | 66.2 | 74 | 
Cc1coc2c1C(=O)C(=O)c1c-2ccc2c1CCCC2(C)C [Tanshinone IIA] | 50.8 | 56.6 | 69.7 | 59 | 
Cc1coc2c1C(=O)C(=O)c1c-2ccc2c(C)cccc12 [Tanshinone I] | 56.8 | 59.3 | 58.1 | 58.1 | 
O=C1c2c(O)cc(O)cc2OC(c2ccc(O)c(O)c2)C1O (stereo not drawn) [Taxifolin (Dihydroquercetin), Taxifolin] | 93.8 | 83.2 | 67.9 | 81.6 | 
COc1ccc(CC2NCCc3cc(OC)c(OC)cc32)cc1OC.Cl (stereo not drawn) [Tetrahydropapaverine HCl] |  |  |  |  | DPP4 activity in library screen, Exp 1 (DPP4; [5]): 92.5; DPP4 activity in library screen, Exp 2 (DPP4; [5]): 78; DPP4 activity in library screen, Exp 3 (DPP4; [5]): 76.9; DPP4 activity in library screen, Mean (DPP4; [6]): 82.5
COc1ccc2cc1Oc1ccc(cc1)C[C@H]1c3cc(c(OC)cc3CCN1C)Oc1c(OC)c(OC)cc3c1[C@H](C2)N(C)CC3 [Tetrandrine] | 99.9 | 98 | 99.8 | 99.2 | 
C[C@H]1CC[C@]2(NC1)O[C@H]1C[C@H]3[C@@H]4CC[C@H]5C[C@@H](O[C@@H]6O[C@H](CO)[C@H](O[C@@H]7O[C@H](CO)[C@@H](O)[C@H](O[C@@H]8OC[C@@H](O)[C@H](O)[C@H]8O)[C@H]7O[C@@H]7O[C@H](CO)[C@@H](O)[C@H](O)[C@H]7O)[C@H](O)[C@H]6O)CC[C@]5(C)[C@H]4CC[C@]3(C)[C@H]1[C@@H]2C [Tomatine] | 103 | 91.8 | 124 | 106 | 
CC(C)[C@]12O[C@H]1[C@@H]1O[C@]13[C@]1(O[C@H]1C[C@H]1C4=C(CC[C@@]13C)C(=O)OC4)[C@@H]2O [Triptolide (PG490), Triptolide] |  |  |  |  | remaining activity at 10 µM (DPP4; [7]): 98.7%; remaining activity at 10 µM (DPP4; [8]): 94.9%; remaining activity at 10 µM (DPP4; [9]): 109%; remaining activity at 10 µM (DPP4; [10]): 101%
C[C@@H]1O[C@@H](OC[C@H]2O[C@@H](Oc3c(-c4ccc(OCCO)c(OCCO)c4)oc4cc(OCCO)cc(O)c4c3=O)[C@H](O)[C@@H](O)[C@@H]2O)[C@H](O)[C@H](O)[C@H]1O [Troxerutin] | 69.8 | 62.2 | 57.2 | 63.1 | 
C[C@H]1[C@H](C)CC[C@]2(C(=O)O)CC[C@]3(C)C(=CC[C@@H]4[C@@]5(C)CC[C@H](O)C(C)(C)[C@@H]5CC[C@]43C)[C@H]12 [Ursolic Acid] | 85.1 | 78.9 | 89.1 | 84.4 | 
COc1cc(C=O)ccc1O [Vanillin] | 105 | 95.3 | 51.5 | 83.8 | 
COc1cc(CCC(C)=O)ccc1O [Vanillylacetone] |  |  |  |  | DPP4 activity in library screen, Exp 1 (DPP4; [5]): 87.8; DPP4 activity in library screen, Exp 2 (DPP4; [5]): 96.8; DPP4 activity in library screen, Exp 3 (DPP4; [5]): 79.9; DPP4 activity in library screen, Mean (DPP4; [6]): 88.2
COc1cc(O)c(CC=C(C)C)c(O)c1C(=O)/C=C/c1ccc(O)cc1 [Xanthohumol] | 94.5 | 102 | 126 | 107 | 
O=c1c2ccccc2oc2ccccc12 [Xanthone] | 88.9 | 79.9 | 77.7 | 82.2 | 
COC(=O)[C@@H]1[C@H]2C[C@H]3c4[nH]c5ccccc5c4CCN3C[C@@H]2CC[C@@H]1O [Yohimbine HCl] |  |  |  |  | remaining activity at 10 µM (DPP4; [7]): 92.1%; remaining activity at 10 µM (DPP4; [8]): 92.7%; remaining activity at 10 µM (DPP4; [9]): 90.1%; remaining activity at 10 µM (DPP4; [10]): 91.6%
CC[C@H](CC[C@@H](C)[C@H]1CC[C@H]2[C@@H]3CC=C4C[C@@H](O)CC[C@]4(C)[C@H]3CC[C@]12C)C(C)C [beta-sitosterol] | 98.6 | 92.3 | 104 | 98.2 | 
COC12c3c(C)cc(O)c4c(=O)occ(c34)C(=O)C1C13COC(=O)c4c(O)cc(C)c(c41)C(=O)C2C3OC(C)=O (stereo not drawn) [duclauxin] |  |  |  |  | DPP4 activity in library screen, Exp 1 (DPP4; [5]): 98.3; DPP4 activity in library screen, Exp 2 (DPP4; [5]): 99.5; DPP4 activity in library screen, Exp 3 (DPP4; [5]): 163.1; DPP4 activity in library screen, Mean (DPP4; [6]): 120.3
Methyl-Hesperidin |  |  |  |  | DPP4 activity in library screen, Exp 1 (DPP4; [5]): 98.7; DPP4 activity in library screen, Exp 2 (DPP4; [5]): 101.2; DPP4 activity in library screen, Exp 3 (DPP4; [5]): 74.4; DPP4 activity in library screen, Mean (DPP4; [6]): 91.4
Myricitrin |  |  |  |  | DPP4 activity in library screen, Exp 1 (DPP4; [5]): 67; DPP4 activity in library screen, Exp 2 (DPP4; [5]): 70.2; DPP4 activity in library screen, Exp 3 (DPP4; [5]): 70.2; DPP4 activity in library screen, Mean (DPP4; [6]): 69.1
xenoclauxin |  |  |  |  | DPP4 activity in library screen, Exp 1 (DPP4; [5]): 105.6; DPP4 activity in library screen, Exp 2 (DPP4; [5]): 107.6; DPP4 activity in library screen, Exp 3 (DPP4; [5]): 132.5; DPP4 activity in library screen, Mean (DPP4; [6]): 115.2
